{"source": "patent US20220229063A1", "about": "“FLUORESCENT COMPOUND WITH CYANURIC-HYDROXIDE AND PREPARATION METHOD THEREOF” (Bioacts Corporation, priority 2021, published 2022)", "test": "Comparison of fluorescent values at the same absorption wavelength of compound 2-1 and compound 2-2", "type": "physicochemical", "method": "In order to confirm an increase in fluorescent intensity by introducing triazine substituted with a hydroxyl group shown in the compound 3-3 as a linker, the following comparative experiment was conducted.\nThe compound 2-1 was dissolved in DMF at a concentration of 10 mg/ml and then 5 μl of the compound 2-1 was added to 5 ml of PBS at room temperature, and 5 μl of the compound 2-2 was added to 5 mL of PBS at the same concentration in the same manner. The absorption was measured by adding 2 mL of two samples by 1 mL of PBS and the fluorescence was measured even after diluting the compounds.\nIn FIGS. 1 and 2, the numerical values of ½ and ¼ indicate that the initial concentration was diluted."}
{"smiles": "CC1(CCCCCC(=O)NCCCNc2nc(O)nc(NCCCCCC(=O)ON3C(=O)CCC3=O)n2)C(/C=C/C=C/C=C2/N(CCCS(=O)(=O)O)c3ccc(S(=O)(=O)O)cc3C2(C)C)=[N+](CCCS(=O)(=O)O)c2ccc(S(=O)(=O)[O-])cc21", "note": "(centres unmarked) [Compound 2-2]", "values": [{"measurement": "increase in fluorescence intensity", "setting": "compared to compound 2-1, at a concentration representing the same absorption intensity, DMF stock 10 mg/ml diluted in PBS, room temperature", "value": "≥ 162", "unit": "%"}, {"measurement": "fluorescence intensity as compared to the compound 2-1", "setting": "single dye form, in PBS, initial concentration and 1/2, 1/4 dilutions", "value": "the higher the concentration, the higher the fluorescence intensity"}]}
